Experimental data from patent publication US6540976B1, “Method for reducing radiation toxicity” (The Board of Trustees of the University of Arkansas, priority 1997, dated 2003).

What was measured:
mononuclear cells = details: cited from earlier work
[1] = tested on: radiation enteropathy (irradiated small bowel); test: Rat small bowel radiation enteropathy model, fractionated radiation; format: in vivo, rats; details: 8 x 5.6 Gy, 30 mg/kg q.d. for 14 days
Protocol: A 4-cm segment of distal ileum was sutured to the inside of the scrotum in orchiectomized male rats, thus forming an artificial “scrotal hernia”. The afferent bowel was divided 10 cm proximal to the “hernia”, an end ileostomy was prepared, and intestinal continuity was restored by end-to-side anastomosis. The intestine in the “hernia” was subsequently exposed to 0, 18, or 21 Gy single dose, or 8 daily fractions of 5.6 Gy (total dose 44.8 Gy), external beam X-irradiation. Orazipone or vehicle was injected through the stoma from 3 days prior to 2 weeks after irradiation. Mucosal injury was monitored non-invasively by assessment of granulocyte marker protein (GMP) excretion. Irradiated and shielded intestine were procured 2 weeks after irradiation and assessed for structural changes by histopathologic scoring, and for TGF-β, IL-1α, and ED-2 macrophage antigen immunoreactivity. Radiation injury scores are Ad the sum of 7 different histopathologic parameters graded according to severity. Intestinal wall thickness was measured with light microscopy and a stage micrometer. Intestinal wall TGF-β immunoreactivity levels were measured with computerized image analysis, and the number of ED-2 positive cells (macrophages) were counted with a light microscope and fields were determined according to a predetermined grid pattern.
To evaluate the effects of Orazipone following fractionated radiation, the transposed loop of small bowel was exposed to sham-irradiation or 8 daily fractions of 5.6 Gy (total dose 44.8 Gy). Orazipone (30 mg/kg q.d.) or vehicle was delivered for 14 days in 2 separate experimental groups. Group 1 received the drug during and after irradiation (radiation day 2 through post-radiation day 7), while Group 2 received the drug only after irradiation (post-radiation days 0 through 13). All animals were euthanized on post-radiation day 14.

T-cell = details: cited from earlier work
neutrophils = details: cited from earlier work
[2] = tested on: radiation enteropathy (irradiated small bowel); test: Rat small bowel radiation enteropathy model, single dose irradiation; format: in vivo, rats
Protocol: A 4-cm segment of distal ileum was sutured to the inside of the scrotum in orchiectomized male rats, thus forming an artificial “scrotal hernia”. The afferent bowel was divided 10 cm proximal to the “hernia”, an end ileostomy was prepared, and intestinal continuity was restored by end-to-side anastomosis. The intestine in the “hernia” was subsequently exposed to 0, 18, or 21 Gy single dose, or 8 daily fractions of 5.6 Gy (total dose 44.8 Gy), external beam X-irradiation. […] Mucosal injury was monitored non-invasively by assessment of granulocyte marker protein (GMP) excretion. Irradiated and shielded intestine were procured 2 weeks after irradiation and assessed for structural changes by histopathologic scoring, and for TGF-β, IL-1α, and ED-2 macrophage antigen immunoreactivity. Radiation injury scores are Ad the sum of 7 different histopathologic parameters graded according to severity. Intestinal wall thickness was measured with light microscopy and a stage micrometer. Intestinal wall TGF-β immunoreactivity levels were measured with computerized image analysis, and the number of ED-2 positive cells (macrophages) were counted with a light microscope and fields were determined according to a predetermined grid pattern.

[3] = in vivo; cited from earlier work
[4] = given either during or after irradiation
[5] = single dose irradiation, vs vehicle-treated controls, p<0.01

CC(=O)C(=Cc1ccc(S(C)(=O)=O)cc1)C(C)=O [Orazipone]
release of IL-1α, IL-1β and TNFα from mononuclear cells (mononuclear cells): inhibits | subacute radiation enteropathy as assessed by Radiation Injury Score [1, 4]: significantly ameliorated | subacute radiation enteropathy as assessed by extracellular matrix-associated TGF-β immunoreactivity [1, 4]: significantly ameliorated | subacute radiation enteropathy as assessed by intestinal wall thickness [1, 4]: significantly ameliorated | extent of mucosal injury (mucosal surface area measurements) ([1]; among the treatment groups): did not differ | T-cell proliferation and IL-2 release (T-cell): reduces | NADPH oxidase and LTB4 production by neutrophils (neutrophils): suppresses | TGF-β overexpression ([2]; 30 mg/kg daily for 1 week after a single dose of 21 Gy): significantly attenuated | frequency of subacute severe small bowel radiation toxicity ([2]; 30 mg/kg daily for 1 week after a single dose of 21 Gy, reduced from 80% (control)): 25% | GMP excretion ([2]; single dose irradiation): not significantly affected | macrophage accumulation ([2]; single dose irradiation): not significantly affected | extracellular matrix-associated TGF-β immunoreactivity [2, 5]: less | histopathologic injury of irradiated intestine [2, 5]: less | intestinal wall thickening ([2]; single dose irradiation, vs vehicle-treated controls, p<0.05): less | IL-1α positive cells ([2]; single dose irradiation, vs vehicle-treated controls, p=0.05): less | fate of absorbed drug (metabolism) [3]: broken down into inactive metabolites very quickly
